Positions of bridges follow the written chain, without caps; N, C: chain ends. Non-standard residues stand in square brackets, D forms with d. Residues, ends and D or L forms follow the SMILES beside them. No end group written: not given here. S5 = C=CCCC[C@](C)(N)C(=O)O; Nle = CCCC[C@H](N)C(=O)O
Legend:
chymotrypsin [1] = biological target: T1, chymotrypsin (Bos taurus, UniProt P00766); test: Chymotrypsin proteolysis of gp41-derived HIV-1 fusion inhibitor peptides
Procedure: In vitro proteolytic degradation of structured peptides was measured by LC/MS (Agilent 1200) using the following parameters: 20 μL injection, 0.6 mL flow rate, 15 min run time consisting of a gradient of water (0.1% formic acid) to 20-80% acetonitrile (0.075% formic acid) over 10 min, 4 min wash to revert to starting gradient conditions, and 0.5 min post-time. The DAD signal was set to 280 nm with an 8 nm bandwidth and MSD set to scan mode with one channel at (M+2H)/2, +1 mass units and the other at (M+3H)/3, +1 mass units. […] Reaction samples were composed of 5 μL peptide in DMSO (1 mM stock) and 195 μL of buffer consisting of 50 mM phosphate buffer pH 7.4 containing 2 mM CaCl2. Upon injection of the 0 hr time point sample, 2 μL of 50 ng/μL chymotrypsin (Sigma) was added and the amount of intact peptide quantitated by serial injection over time. An internal control of acetylated tryptophan carboxamide at a concentration of 100 μM was used to normalize each MSD data point. A plot of MSD area versus time yielded an exponential decay curve and half-lives were determined by nonlinear regression analysis using Prism software (GraphPad). The assay was also performed using trypsin and pepsin in their appropriate buffer conditions.

[2] = Circular dichroism melting of gp41 peptides; assay type: physicochemical; details: circular dichroism melting profile
Procedure: The alpha-helicity of stapled modified polypeptides was compared to their unmodified counterparts by circular dichroism. CD spectra were obtained on an Aviv spectropolarimeter at 20° C. using the following standard measurement parameters: wavelength, 190-260 nm; step resolution, 0.5 nm; speed, 20 nm/sec; accumulations, 10; response, 1 sec; bandwidth, 1 nm; path length, 0.1 cm. The alpha-helical content of each peptide was calculated by dividing the mean residue ellipticity [θ]222obs by the reported [θ]222obs for a model helical peptide (Forood, B., E. J. Feliciano, and K. P. Nambiar, PNAS, 1993. 90(3): p. 838-842; J. Martin Scholtz, Biopolymers, 1991. 31(13): p. 1463-1470; Lawless, M. K., et al., Biochemistry, 1996. 35(42): p. 13697-13708) or using, for example, the Aviv machine using CDNN software developed by Brohm in order to deduce five different secondary structure fractions (helix, parallel and antiparallel beta-sheet, beta-turn and random coil). Protein Engineering, 1992. 5(3); p. 191-195. Thermal stability is assessed by acquiring circular dichroism spectra across a broad temperature range and determining the melting temperatures for each constrained peptide.

[3] = test system: isolated pancreatic islets; test: Glucose-stimulated insulin release (GSIS) from isolated pancreatic islets; assay type: cell-based, mouse; details: 10 nM peptide, 1.67 mM to 16.7 mM glucose, 1 hour at 37° C., insulin ELISA
Procedure: Stock solutions of SAH-Ex and SAH-GLP peptides were generated by dissolving the lyophilized powders in deionized water at 100 μM. The following treatment solutions were made for batch GSIS assays: 1.67 mM glucose, 16.7 mM glucose, 1.67 mM glucose+10 nM peptide, 16.7 mM glucose+10 nM peptide all in 1×KRB buffer, 2 mM CaCl2, 0.05% BSA. Islets isolated from wild-type mouse pancreas were washed 3 times with KRB buffer and 5 islets per experimental tube were incubated in KRB buffer containing 1.67 mM glucose for 30 min at 37° C. Islets were then pelleted and the buffer replaced with the treatment solutions listed above. Each experimental condition was examined in replicates of n=8. After 1 hour incubation at 37° C., islets were pelleted and the supernatants collected for glucose stimulated insulin release measurement. The pellets are solubilized to assess intracellular insulin content to normalize for cell number. Insulin was measured by ELISA using mouse insulin as a standard (Insulin ELISA Kit, cat. 80-INSMS-E01, ALPCO). For the insulin ELISA plots, there is a small increase in the amount of insulin released in response to escalation of the glucose dose from 1.67 mM to 16.7 mM.

[4] = Circular dichroism thermal unfolding, 5-83° C.; assay type: physicochemical
pepsin = pepsin (Sus scrofa, UniProt P00791); test: in vitro; assay type: in vitro ADME; details: pH 2
pepsin, sequence (P00791 60-385): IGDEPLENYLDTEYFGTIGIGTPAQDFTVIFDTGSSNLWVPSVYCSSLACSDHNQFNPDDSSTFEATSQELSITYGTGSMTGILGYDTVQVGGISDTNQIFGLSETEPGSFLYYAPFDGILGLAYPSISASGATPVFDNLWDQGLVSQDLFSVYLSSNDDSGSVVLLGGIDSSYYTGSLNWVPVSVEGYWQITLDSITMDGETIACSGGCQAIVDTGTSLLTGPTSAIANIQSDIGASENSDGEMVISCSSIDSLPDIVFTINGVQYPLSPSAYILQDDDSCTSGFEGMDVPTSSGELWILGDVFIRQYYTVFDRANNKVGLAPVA
Procedure: In vitro proteolytic degradation of structured peptides was measured by LC/MS (Agilent 1200) using the following parameters: 20 μL injection, 0.6 mL flow rate, 15 min run time consisting of a gradient of water (0.1% formic acid) to 20-80% acetonitrile (0.075% formic acid) over 10 min, 4 min wash to revert to starting gradient conditions, and 0.5 min post-time. The DAD signal was set to 280 nm with an 8 nm bandwidth and MSD set to scan mode with one channel at (M+2H)/2, +1 mass units and the other at (M+3H)/3, +1 mass units. Integration of each MSD signal yielded areas under the curve of >10^8 counts. Reaction samples were composed of 5 μL peptide in DMSO (1 mM stock) and 195 μL of buffer consisting of 50 mM phosphate buffer pH 7.4 containing 2 mM CaCl2. Upon injection of the 0 hr time point sample, 2 μL of 50 ng/μL chymotrypsin (Sigma) was added and the amount of intact peptide quantitated by serial injection over time. An internal control of acetylated tryptophan carboxamide at a concentration of 100 μM was used to normalize each MSD data point. A plot of MSD area versus time yielded an exponential decay curve and half-lives were determined by nonlinear regression analysis using Prism software (GraphPad). The assay was also performed using trypsin and pepsin in their appropriate buffer conditions.

chymotrypsin [5] = biological target: T1, chymotrypsin; assay type: in vitro ADME; design: purchased Sigma; details: pH 7
From the text: A major limitation of peptides as therapeutics is their susceptibility to rapid proteolytic degradation. […] One of the potential benefits of a covalent crosslinking strategy to enforce peptide α-helicity is shielding of the vulnerable amide bonds from proteolysis. Because proteases require that peptides adopt an extended conformation to hydrolyze amide bonds, the structural constraint afforded by the hydrocarbon staple can render crosslinked peptides protease-resistant.

CCCC[C@H](NC(=O)[C@H](Cc1c[nH]c2ccccc12)NC(=O)[C@@H](NC(=O)[C@@H](N)CCCC)[C@@H](C)O)C(=O)N[C@@H](CCC(=O)O)C(=O)N[C@@H](Cc1c[nH]c2ccccc12)C(=O)N[C@@H](CC(=O)O)C(=O)N[C@@H](CCCNC(=N)N)C(=O)N[C@@H](CCC(=O)O)C(=O)N[C@H](C(=O)N[C@@H](CC(N)=O)C(=O)N[C@@H](CC(N)=O)C(=O)N[C@@H](Cc1ccc(O)cc1)C(=O)N[C@H](C(=O)N[C@@H](CO)C(=O)N[C@@H](CC(C)C)C(=O)N[C@H](C(=O)N[C@@H](Cc1c[nH]cn1)C(=O)N[C@@H](CO)C(=O)N[C@@H](CC(C)C)C(=O)N[C@H](C(=O)N[C@@H](CCC(=O)O)C(=O)N[C@@H](CCC(=O)O)C(=O)N[C@@H](CO)C(=O)N[C@@H](CCC(N)=O)C(=O)N[C@@H](CC(N)=O)C(=O)N[C@@H](CCC(N)=O)C(=O)N[C@@]1(C)CCCC=CCCC[C@@](C)(C(=O)N[C@@H](CCC(N)=O)C(=O)N[C@@H](CCC(=O)O)C(=O)N[C@@H](CC(C)C)C(=O)N[C@@H](CC(C)C)C(=O)N[C@@H](CCC(=O)O)C(N)=O)NC(=O)[C@H](CC(N)=O)NC(=O)[C@H](CCCCN)NC(=O)[C@H](CCC(=O)O)NC1=O)[C@@H](C)CC)[C@@H](C)CC)[C@@H](C)O)[C@@H](C)CC [SAH-gp41(626-662)(B)] (H-[Nle]TW[Nle]EWDREINNYTSLIHSLIEESQNQ[S5]EKN[S5]QELLE-NH2; staple 28-32; N-terminus assumed)
half-life (chymotrypsin [1]): 1.28 h

C=CCCC[C@](C)(NC(=O)[C@H](CC(N)=O)NC(=O)[C@H](CCCCN)NC(=O)[C@H](CCC(=O)O)NC(=O)[C@](C)(CCCC=C)NC(=O)[C@H](CCC(N)=O)NC(=O)[C@H](CC(N)=O)NC(=O)[C@H](CCC(N)=O)NC(=O)[C@H](CO)NC(=O)[C@H](CCC(=O)O)NC(=O)[C@H](CCC(=O)O)NC(=O)[C@@H](NC(=O)[C@H](CC(C)C)NC(=O)[C@H](CO)NC(=O)[C@H](Cc1c[nH]cn1)NC(=O)[C@@H](NC(=O)[C@H](CC(C)C)NC(=O)[C@H](CO)NC(=O)[C@@H](NC(=O)[C@H](Cc1ccc(O)cc1)NC(=O)[C@H](CC(N)=O)NC(=O)[C@H](CC(N)=O)NC(=O)[C@@H](NC(=O)[C@H](CCC(=O)O)NC(=O)[C@](C)(CCCC=C)NC(=O)[C@H](CC(=O)O)NC(=O)[C@H](Cc1c[nH]c2ccccc12)NC(=O)[C@H](CCC(=O)O)NC(=O)[C@](C)(CCCC=C)NC(=O)[C@H](Cc1c[nH]c2ccccc12)NC(=O)[C@@H](NC(=O)[C@@H](N)CCCC)[C@@H](C)O)[C@@H](C)CC)[C@@H](C)O)[C@@H](C)CC)[C@@H](C)CC)C(=O)N[C@@H](CCC(N)=O)C(=O)N[C@@H](CCC(=O)O)C(=O)N[C@@H](CC(C)C)C(=O)N[C@@H](CC(C)C)C(=O)N[C@@H](CCC(=O)O)C(N)=O [UAH-gp41(626-662)(A,B)] (H-[Nle]TW[S5]EWD[S5]EINNYTSLIHSLIEESQNQ[S5]EKN[S5]QELLE-NH2; N-terminus assumed)
Tm [2]: 27 °C | half-life (chymotrypsin [1]): 0.6 h | protection from chymotrypsin proteolysis, result in words (chymotrypsin [1]): does not confer significant protection

GLP1: Glucagon-like Peptide-1, insulin secretagogue (HAEGTFTSDVSSYLEGQAAKEFIAWLVKGR; ends and bridges not checked; UniProt P01275 98-127, looked up)
glucose-stimulated insulin release (GSIS) [3]: substantial increase in GSIS

CC[C@H](C)[C@H](NC(=O)[C@H](Cc1ccccc1)NC(=O)[C@H](CC(C)C)NC(=O)[C@H](CCCNC(=N)N)NC(=O)[C@@H](NC(=O)[C@H](C)NC(=O)[C@H](CCC(=O)O)NC(=O)[C@H](CCC(=O)O)NC(=O)[C@H](CCC(=O)O)NC(=O)[C@]1(C)CCCC=CCCC[C@](C)(NC(=O)[C@H](CC(=O)O)NC(=O)[C@H](CO)NC(=O)[C@@H](NC(=O)[C@H](Cc2ccccc2)NC(=O)[C@@H](NC(=O)CNC(=O)[C@H](CCC(=O)O)NC(=O)CNC(=O)[C@@H](N)Cc2c[nH]cn2)[C@@H](C)O)[C@@H](C)O)C(=O)N[C@@H](CO)C(=O)N[C@@H](CCCCN)C(=O)N[C@@H](CCC(N)=O)C(=O)N1)C(C)C)C(=O)N[C@@]1(C)CCCC=CCCC[C@@](C)(C(=O)NCC(=O)NCC(=O)N2CCC[C@H]2C(=O)N[C@@H](CO)C(=O)N[C@@H](CO)C(=O)NCC(=O)N[C@@H](C)C(=O)N2CCC[C@H]2C(=O)N2CCC[C@H]2C(=O)N2CCC[C@H]2C(=O)N[C@@H](CO)C(N)=O)NC(=O)[C@H](CCCCN)NC(=O)[C@H](CC(C)C)NC(=O)[C@H](Cc2c[nH]c3ccccc23)NC1=O (single isomer, unassigned) [SAH-Ex(A, B)]
slope of temperature melt line [4]: flatter sloped line | enhancement in pepsin resistance compared to the template peptide (pepsin): 13 fold | half-life at 25 μM (pepsin): 2.87 h | enhancement in chymotrypsin resistance compared to the singly stapled peptides (chymotrypsin [5]): up to 4 fold | enhancement in chymotrypsin resistance compared to the template peptide (chymotrypsin [5]): 8 fold
